Experimental data taken from patent US10500209B2, “Quinazolinones as bromodomain inhibitors” (Zenith Epigenetics Ltd., priority 2013, dated 2019).

Assays:
hIL-6 mRNA = assay: Inhibition of hIL-6 mRNA transcription in LPS-stimulated U937 macrophages; format: cell-based, human; set-up: key: Active: Compounds with an IC50 value less than 30 μM were deemed to be active.; Not Active: Compounds with an IC50 value less than 30 μM were deemed to be active; conditions: U937 cells differentiated with PMA, LPS stimulation, 3 h
Protocol: In this example, hIL-6 mRNA in tissue culture cells was quantitated to measure the transcriptional inhibition of hIL-6 when treated with a compound of the present disclosure.
A human leukemic monocyte lymphoma cell line (U937) was plated (3.2×10^4 cells per well) in a 96-well plate in 100 μL RPMI-1640 containing 10% FBS and penicillin/streptomycin, and differentiated into macrophages for 3 days in 60 ng/mL PMA ([…]) at 37° C. in 5% CO2 prior to the addition of the compound of interest. The cells were pretreated for 1 h with the test compound prior to stimulation with 1 ug/mL lipopolysaccharide from Escherichia coli. The cells were incubated at 37° C. for 3 h before the cells were harvested. At time of harvest, the spent media was removed from the cells and the cells were rinsed in 200 μL PBS. Cell lysis solution (70 μL) was added the cells in each well and incubated for 5-10 min at room temperature, to allow for complete cell lysis and detachment. mRNA was then prepared using the “mRNA Catcher PLUS plate” (Invitrogen), according to the protocol supplied. After the last wash, as much wash buffer as possible was aspirated without allowing the wells to dry. Elution buffer (E3, 70 μL) was then added to each well. mRNA was then eluted by incubating the mRNA Catcher PLUS plate with Elution Buffer for 5 min at 68° C. and then immediately placing the plate on ice.
The eluted mRNA isolated was then used in a one-step quantitative real-time PCR reaction, using components of the Ultra Sense Kit together with Applied Biosystems primer-probe mixes. Real-time PCR data was analyzed, normalizing the Ct values for hIL-6 to an internal control, prior to determining the fold induction of each unknown sample, relative to the control.

[1] = target: T1, Brd4 bromodomain 1 (BRD4(1)) (Homo sapiens, UniProt O60885); assay: Inhibition of tetra-acetylated histone H4 binding to BET bromodomains (TR-FRET); set-up: key: Active: Compounds with an IC50 value less than 30 μM were deemed to be active.; Not Active: Compounds with an IC50 value less than 30 μM were deemed to be active; conditions: first bromodomain of Brd4, tetra-acetylated histone H4 peptide
T1 construct: made in house; host or cells: E. coli BL21(DE3)
Protocol: Proteins were cloned and overexpressed with a N-terminal 6×His tag, then purified by nickel affinity followed by size exclusion chromatography. Briefly, E. coli BL21(DE3) cells were transformed with a recombinant expression vector encoding N-terminally Nickel affinity tagged bromodomains from Brd2, Brd3, Brd4. Cell cultures were incubated at 37° C. with shaking to the appropriate density and induced overnight with IPTG. The supernatant of lysed cells was loaded onto Ni-IDA column for purification. Eluted protein is pooled, concentrated and further purified by size exclusion chromatography. Fractions representing monomeric protein were pooled, concentrated, aliquoted, and frozen at −80° C. for use in subsequent experiments.
Binding of tetra-acetylated histone H4 and BET bromodomains was confirmed by a Time Resolved Fluorescence Resonance Energy Transfer (TR-FRET) method. N-terminally His-tagged bromodomains (200 nM) and biotinylated tetra-acetylated histone H4 peptide (25-50 nM, Millipore) were incubated in the presence of Europium Cryptate-labeled streptavidin (Cisbio Cat. #610SAKLB) and XL665-labeled monoclonal anti-His antibody (Cisbio Cat. #61HISXLB) in a white 96 well microtiter plate (Greiner). For inhibition assays, serially diluted test compound was added to these reactions in a 0.2% final concentration of DMSO. Final buffer concentrations were 30 mM HEPES pH 7.4, 30 mM NaCl, 0.3 mM CHAPS, 20 mM phosphate pH 7.0, 320 mM KF, 0.08% BSA). After a 2-h incubation at room temperature, the fluorescence by FRET was measured at 665 and 620 nm by a SynergyH4 plate reader (Biotek). The binding inhibitory activity was shown by a decrease in 665 nm fluorescence relative to 620 nm. IC50 values were determined from a dose response curve.

human AML MV-4-11 cells = assay: Inhibition of cell proliferation in cancer cell lines (CellTiter Aqueous One); format: cell-based; set-up: key: Active: Compounds with an IC50 value less than 30 μM were deemed to be active.; Not Active: Compounds with an IC50 value less than 30 μM were deemed to be active; conditions: 72 h
Protocol: MV4-11 cells: 96-well plates were seeded with 5×10^4 cells per well of exponentially growing human AML MV-4-11 (CRL-9591) cells and immediately treated with two-fold dilutions of test compounds, ranging from 30 μM to 0.2 μM. Triplicate wells were used for each concentration, as well as a media only and three DMSO control wells. The cells and compounds were incubated at 37° C., 5% CO2 for 72 h before adding 20 μL of the CellTiter Aqueous One Solution (Promega) to each well and incubating at 37° C., 5% CO2 for an additional 3-4 h. The absorbance was taken at 490 nm in a spectrophotometer and the percentage of proliferation relative to DMSO-treated cells was calculated after correction from the blank well. IC50 were calculated using the GraphPad Prism software.

c-myc in MV4-11 cells = assay: Inhibition of c-myc expression in cancer cell lines (mRNA, real-time PCR); format: cell-based, Human; set-up: key: Active: Compounds with an IC50 value less than 30 μM were deemed to be active.; Not Active: Compounds with an IC50 value less than 30 μM were deemed to be active; conditions: 3 h
Protocol: MV4-11 cells (2.5×10^4 cells) were plated in 96 well U-bottom plates with test compound or DMSO (0.1%), and incubated for 3 h at 37° C. Cells were then harvested by centrifugation, lysed, and mRNA was isolated using the mRNA catcher plus kit (Invitrogen). Reverse transcription of the mRNA and duplex amplification of the c-myc and cyclophilin cDNAs was performed using the RNA Ultrasense kit (Invitrogen) and a ViiA7 real-time PCR machine (Applied Biosystems). IC50 values were determined from a dose response curve.

SMILES	IL-6 activity (IC50 < 30 μM) (hIL-6 mRNA)	FRET activity BRD4(1) [1]	Cell Proliferation activity (IC50 < 30 μM) (human AML MV-4-11 cells)	melting point	c-myc activity (IC50 < 30 μM) (c-myc in MV4-11 cells)
COc1cc(OC)c2c(=O)[nH]c(-c3ncc(OCCNC4CCN(C(C)C)CC4)cc3NC3CCN(C(C)C)CC3)nc2c1 [Example 50, 2-(3-((1-Isopropylpiperidin-4-yl)amino)-5-(2-((1-isopropylpiperidin-4-yl)amino)ethoxy)pyridin-2-yl)-5,7-dimethoxyquinazolin-4(3H)-one]	Active	Active			
COc1cnc(-c2nc3cc(OC)cc(OC)c3c(=O)[nH]2)c(N[C@H]2CC[C@@H](C(=O)NC(C)C)CC2)c1 [Example 45, cis-4-((2-(5,7-Dimethoxy-4-oxo-3,4-dihydroquinazolin-2-yl)-5-methoxypyridin-3-yl)amino)-N-isopropylcyclohexane-1-carboxamide]	Active	Active	Not Active		
COc1ccc(-c2nc3cc(OC)cc(OC)c3c(=O)[nH]2)c(N[C@H]2CC[C@H](C(C)(C)O)CC2)c1 [Example 31, 2-(2-((trans-4-(2-Hydroxypropan-2-yl)cyclohexyl)amino)-4-methoxyphenyl)-5,7-dimethoxyquinazolin-4(3H)-one]	Active	Active	Not Active	253 °C (dec.)	
COc1cc(OC)c2c(=O)[nH]c(-c3ncccc3NC3CCN(C(=O)C(C)(C)C)CC3)nc2c1 [Example 48, 5,7-Dimethoxy-2-(3-((1-pivaloylpiperidin-4-yl)amino)pyridin-2-yl)quinazolin-4(3H)-one]	Active	Active	Active	209 to 210 °C	Active
COc1cc(OC)c2c(=O)[nH]c(-c3ncccc3NC3CCN(C(C)=O)CC3)nc2c1 [Example 37, 2-(3-((1-Acetylpiperidin-4-yl)amino)pyridine-2-yl)-5,7-dimethoxyquinazolin-4(3H)-one]	Active	Active	Active		Active
COc1ccc(-c2nc3cc(OC)cc(OC)c3c(=O)[nH]2)c(NCC2CCN(C(C)C)C2)c1 (stereo not drawn) [Example 16, 2-(2-(((1-Isopropylpyrrolidin-3-yl)methyl)amino)-4-methoxyphenyl)-5,7-dimethoxyquinazolin-4(3H)-one]		Active	Active	228 to 230 °C	Active
COc1ccc(-c2nc3cc(OC)cc(OC)c3c(=O)[nH]2)c(NC2CCN(C(C)=O)CC2)c1 [Example 39, 2-(2-((1-Acetylpiperidin-4-yl)amino)-4-methoxyphenyl)-5,7-dimethoxyquinazolin-4(3H)-one]	Active	Active	Active		Active
COc1ccc(NC2CCN(C(C)C)CC2)c(-c2nc3cc(OC)cc(OC)c3c(=O)[nH]2)c1 [Example 26, 2-(2-((1-Isopropylpiperidin-4-yl)amino)-5-methoxyphenyl)-5,7-dimethoxyquinazolin-4(3H)-one]	Active	Active	Not Active		Active
COc1cc(OC)c2c(=O)[nH]c(-c3ncccc3NC3CCN(CC(C)(C)O)CC3)nc2c1 [Example 59, 2-(3-((1-(2-Hydroxy-2-methylpropyl)piperidin-4-yl)amino)pyridin-2-yl)-5,7-dimethoxyquinazolin-4(3H)-one]		Active	Active	220 to 221 °C	Active
COc1cc(OC)c2c(=O)[nH]c(-c3ncccc3NC3CCN(C(=O)N(C)C)CC3)nc2c1 [Example 42, 4-((2-(5,7-Dimethoxy-4-oxo-3,4-dihydroquinazolin-2-yl)pyridin-3-yl)amino)-N,N-dimethylpiperidine-1-carboxamide]		Active	Active	195 to 197 °C	Active
COc1cc(OC)c2c(=O)[nH]c(-c3ncccc3NC3CCN(C(=O)NC(C)C)CC3)nc2c1 [Example 47, 4-((2-(5,7-Dimethoxy-4-oxo-3,4-dihydroquinazolin-2-yl)pyridin-3-yl)amino)-N-isopropylpiperidine-1-carboxamide]	Active	Active	Not Active	198 to 199 °C	
COc1cc(OC)c2c(=O)[nH]c(-c3ncc(OCCNC(C)C)cc3NC3CCN(C(C)C)CC3)nc2c1 [Example 67, 2-{5-[2-(Isopropylamino)ethoxy]-3-(1-isopropylpiperidin-4-ylamino)pyridin-2-yl}-5,7-dimethoxyquinazolin-4(3H)-one]		Active	Active	178 to 181 °C	Active
COc1ccc(-c2nc3cc(OC)cc(OC)c3c(=O)[nH]2)c(NCCCN2CCN(C)CC2)c1 [Example 21]		Active	Active	220 to 222 °C	Active
COc1cc(OC)c2c(=O)[nH]c(-c3ncc(OCCO)cc3NC3CCN(C(C)C)CC3)nc2c1 [Example 62, 2-[5-(2-Hydroxyethoxy)-3-(l-isopropylpiperidin-4-ylamino)pyridin-2-yl]-5,7-dimethoxyquinazolin-4(3H)-one]		Active	Active	231 to 233 °C	Active
